What was measured:
Type in all cases: biochemical
PKC theta kinase = PKC theta kinase (Homo sapiens, UniProt Q04759); assay: PKC theta kinase inhibition, coupled-enzyme (NADH absorbance) assay, Ki; details: 240 μM ATP, 18 nM PKC theta kinase, 30° C.
Protocol: An assay buffer solution was prepared which consisted of 100 mM HEPES (pH 7.5), 10 mM MgCl2, 25 mM NaCl, 0.1 mM EDTA and 0.01% Brij. […] To 60 μL of this enzyme buffer, in a 384 well plate, was added 2 μL of VRT stock solution in DMSO. The mixture was allowed to equilibrate for 10 mins at 30° C. […] Ki values were calculated from initial rate data by non-linear regression using the Prism software package (Prism 4.0a, Graphpad Software, San Diego, Calif.).

PKC delta kinase = PKC delta kinase (Homo sapiens, UniProt Q05655); assay: PKC delta kinase inhibition, coupled-enzyme (NADH absorbance) assay, Ki; details: 150 μM ATP, 46 nM PKC delta kinase, 30° C.; read-out: Ki PKC delta
Sequence of PKC delta kinase (Q05655 whole entry): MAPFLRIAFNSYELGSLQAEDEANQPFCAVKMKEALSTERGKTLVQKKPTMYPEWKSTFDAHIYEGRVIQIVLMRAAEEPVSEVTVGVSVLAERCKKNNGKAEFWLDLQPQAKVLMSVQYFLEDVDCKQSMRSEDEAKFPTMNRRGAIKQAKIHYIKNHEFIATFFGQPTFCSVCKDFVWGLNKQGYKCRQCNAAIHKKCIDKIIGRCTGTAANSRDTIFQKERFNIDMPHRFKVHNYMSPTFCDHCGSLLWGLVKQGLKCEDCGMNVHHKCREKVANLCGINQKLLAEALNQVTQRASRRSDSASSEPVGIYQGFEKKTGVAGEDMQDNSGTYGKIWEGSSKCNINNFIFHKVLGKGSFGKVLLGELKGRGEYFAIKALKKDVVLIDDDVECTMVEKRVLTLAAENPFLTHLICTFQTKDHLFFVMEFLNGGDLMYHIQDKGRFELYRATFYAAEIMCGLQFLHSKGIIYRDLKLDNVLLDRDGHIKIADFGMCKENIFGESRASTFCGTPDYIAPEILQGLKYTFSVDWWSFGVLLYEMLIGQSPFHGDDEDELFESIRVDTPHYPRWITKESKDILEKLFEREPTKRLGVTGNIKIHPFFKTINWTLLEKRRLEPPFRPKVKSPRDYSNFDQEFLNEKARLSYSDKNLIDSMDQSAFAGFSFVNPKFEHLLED
Protocol: (§1) An assay buffer solution was prepared which consisted of 100 mM HEPES (pH 7.5), 10 mM MgCl2, 25 mM NaCl, 0.1 mM EDTA and 0.01% Brij. […] To 16 μL of this enzyme buffer, in a 384 well plate, was added 1 μL of VRT stock solution in DMSO. The mixture was allowed to equilibrate for 10 mins at 30° C. The enzyme reaction was initiated by the addition of 16 μL stock ATP solution prepared in assay buffer to a final assay concentration of 150 μM. Initial rate data was determined from the rate of change of absorbance at 340 nm (corresponding to stoichiometric consumption of NADH) using a Molecular Devices Spectramax plate reader (Sunnyvale, Calif.) over 15 mins at 30° C. […] Ki values were calculated from initial rate data by non-linear regression using the Prism software package (Prism 4.0a, Graphpad Software, San Diego, Calif.).

PKC alpha kinase = PKC alpha kinase (Homo sapiens, UniProt P17252); assay: PKC alpha kinase inhibition, coupled-enzyme (NADH absorbance) assay, Ki; details: 130 μM ATP, 4.5 nM PKC alpha kinase, 30° C.
Protocol: as §1, with “EDTA, 100 μM CaCl2” for “EDTA”, “130” for “150”

Sequence of PKC theta kinase (Q04759 whole entry): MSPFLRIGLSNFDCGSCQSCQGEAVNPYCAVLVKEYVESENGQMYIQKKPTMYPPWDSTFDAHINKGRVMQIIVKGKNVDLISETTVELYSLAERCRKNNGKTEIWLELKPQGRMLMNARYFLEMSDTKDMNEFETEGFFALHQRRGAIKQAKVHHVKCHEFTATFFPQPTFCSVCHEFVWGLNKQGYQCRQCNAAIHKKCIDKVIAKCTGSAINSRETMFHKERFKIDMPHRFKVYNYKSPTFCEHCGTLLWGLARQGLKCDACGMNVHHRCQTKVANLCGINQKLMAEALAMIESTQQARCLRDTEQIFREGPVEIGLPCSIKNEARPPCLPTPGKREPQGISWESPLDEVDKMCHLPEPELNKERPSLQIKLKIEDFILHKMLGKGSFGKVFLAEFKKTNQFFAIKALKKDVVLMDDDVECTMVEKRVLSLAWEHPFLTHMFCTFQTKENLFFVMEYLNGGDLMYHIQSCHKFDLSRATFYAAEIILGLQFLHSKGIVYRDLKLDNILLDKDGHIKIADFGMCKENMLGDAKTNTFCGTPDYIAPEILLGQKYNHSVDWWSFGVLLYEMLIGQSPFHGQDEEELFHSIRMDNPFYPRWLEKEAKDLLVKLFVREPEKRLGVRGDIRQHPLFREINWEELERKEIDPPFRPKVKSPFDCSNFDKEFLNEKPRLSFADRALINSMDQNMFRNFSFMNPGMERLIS

Ki (PKC theta kinase)	Ki (PKC delta kinase)	Ki (PKC alpha kinase)	Structure (SMILES)
< 0.5 µM	> 2 µM	> 1.25 µM	CC[C@H]1CN(c2cccc(-c3n[nH]c4ncccc34)n2)C[C@H](CC(C)C)N1 [Compound 12]
< 0.05 µM	< 0.5 µM	< 2.8 µM	CC[C@@H]1CN(c2cccc(-c3n[nH]c4ncccc34)n2)C[C@H](CC(C)C)N1 [Compound 13]
< 0.5 µM	< 2.8 µM	> 1.25 µM	CCC[C@H]1CN(c2cccc(-c3n[nH]c4ncccc34)n2)C[C@H](CC(C)C)N1 [Compound 14]
< 0.05 µM	< 0.5 µM	< 2.8 µM	CCC[C@@H]1CN(c2cccc(-c3n[nH]c4ncccc34)n2)C[C@H](CC(C)C)N1 [Compound 15]
< 0.5 µM	> 2 µM	< 2.8 µM	Cc1cccc(C2CN(c3cccc(-c4n[nH]c5ncccc45)n3)CCN2)c1 (stereo not drawn) [Compound 16]
< 0.5 µM	> 2 µM	< 2.8 µM	Cc1ccc(C2CN(c3cccc(-c4n[nH]c5ncccc45)n3)CCN2)cc1 (stereo not drawn) [Compound 17]
< 0.05 µM	< 2.8 µM	< 2.8 µM	Clc1cccc(C2CN(c3cccc(-c4n[nH]c5ncccc45)n3)CCN2)c1 (stereo not drawn) [Compound 18]
> 0.7 µM	> 2 µM	> 1.25 µM	CC(=O)N1CCN(c2cccc(-c3n[nH]c4ncccc34)n2)CC1 [Compound 20]
> 0.7 µM	> 2 µM	> 1.25 µM	OC1CCN(c2cccc(-c3n[nH]c4ncccc34)n2)CC1 [Compound 22]
> 0.7 µM	> 2 µM	> 1.25 µM	CC1CN(c2cccc(-c3n[nH]c4ncccc34)n2)C(C)CN1 (stereo not drawn) [Compound 23]
< 2.8 µM	> 2 µM	> 1.25 µM	CNC1CCN(c2cccc(-c3n[nH]c4ncccc34)n2)C1 (stereo not drawn) [Compound 24]
< 0.5 µM	< 2.8 µM	> 1.25 µM	FC(F)(F)C1CN(c2cccc(-c3n[nH]c4ncccc34)n2)CCN1 (stereo not drawn) [Compound 25]
< 0.5 µM	> 2 µM	> 1.25 µM	CN1CCN(c2cccc(-c3n[nH]c4ncccc34)n2)CC1 [Compound 26]
> 0.7 µM	> 2 µM	< 2.8 µM	c1cc(-c2n[nH]c3ncccc23)nc(N2CCOCC2)c1 [Compound 27]
< 0.05 µM	< 0.5 µM	< 2.8 µM	FC(F)(F)CC1CN(c2cccc(-c3n[nH]c4ncccc34)n2)CCN1 (stereo not drawn) [Compound 28]
< 0.5 µM	> 2 µM	< 2.8 µM	CC(C)C[C@H]1CN(c2ccc(C(F)(F)F)c(-c3n[nH]c4ncc(Br)cc34)n2)CCN1 [Compound 29]
< 0.05 µM	< 0.5 µM	< 0.5 µM	C[C@H]1CNCCN1c1cccc(-c2n[nH]c3ncccc23)n1 [Compound 30]
< 0.5 µM	< 2.8 µM	> 1.25 µM	C[C@@H]1CNCCN1c1cccc(-c2n[nH]c3ncccc23)n1 [Compound 31]
< 0.05 µM	< 0.5 µM	< 0.5 µM	Cc1ccccc1C1CN(c2cccc(-c3n[nH]c4ncccc34)n2)CCN1 (stereo not drawn) [Compound 32]
< 0.5 µM	< 2.8 µM	> 1.25 µM	N[C@@H]1CCN(c2cccc(-c3n[nH]c4ncccc34)n2)C1 [Compound 33]
< 0.5 µM	> 2 µM	< 0.5 µM	CN1CCCN(c2cccc(-c3n[nH]c4ncccc34)n2)CC1 [Compound 34]
< 0.5 µM	> 2 µM	< 0.5 µM	COc1cccc(C2CN(c3cccc(-c4n[nH]c5ncccc45)n3)CCN2)c1 (stereo not drawn) [Compound 35]
< 0.05 µM	< 0.5 µM	< 2.8 µM	CC(C)(O)CC1CN(c2cccc(-c3n[nH]c4ncccc34)n2)CCN1 (stereo not drawn) [Compound 36]
< 0.05 µM	< 2.8 µM	> 1.25 µM	c1ccc(C[C@H]2CN(c3cccc(-c4n[nH]c5ncccc45)n3)CCN2)cc1 [Compound 37]
< 0.05 µM	< 0.5 µM	< 0.5 µM	CC(C)C[C@H]1CN(c2cccc(-c3n[nH]c4ncc(Cl)cc34)n2)CCN1 [Compound 38]

Ki (PKC theta kinase)	Ki (PKC delta kinase)	Ki (PKC alpha kinase)	Structure (SMILES)
< 0.05 µM	< 0.5 µM	< 2.8 µM	CC(C)C[C@H]1CN(c2cncc(-c3n[nH]c4ncccc34)n2)CCN1 [Compound 39, (S)-3-(6-(3-isobutylpiperazin-1-yl)pyrazin-2-yl)-1H-pyrazolo[3,4-b]pyridine]
< 0.5 µM	< 2.8 µM	> 1.25 µM	Cc1ccc(-c2n[nH]c3ncccc23)nc1N1CCN[C@@H](CC(C)C)C1 [Compound 40]
< 0.05 µM	< 0.5 µM	> 1.25 µM	c1cc(-c2n[nH]c3ncccc23)nc(N2CCNC(C3CC3)C2)c1 (stereo not drawn) [Compound 41]
< 0.5 µM	< 0.5 µM	< 0.5 µM	Clc1cnc2[nH]nc(-c3cccc(N4CCNCC4)n3)c2c1 [Compound 42]
< 0.5 µM	< 0.5 µM	< 0.5 µM	C[C@H]1CN(c2cccc(-c3n[nH]c4ncc(Cl)cc34)n2)CCN1 [Compound 43]
< 0.05 µM	< 2.8 µM	< 2.8 µM	CC(C)C[C@H]1CN(c2ccc(C(F)(F)F)c(-c3n[nH]c4ncc(F)cc34)n2)CCN1 [Compound 44]
< 0.5 µM	> 2 µM	> 1.25 µM	Fc1cnc2[nH]nc(-c3nc(N4CCNCC4)ccc3C(F)(F)F)c2c1 [Compound 45]
< 0.05 µM	< 0.5 µM	< 2.8 µM	CC(C)C[C@@H]1CN(c2cccc(-c3n[nH]c4ncc(F)cc34)n2)CCN1 [Compound 46]
< 0.05 µM	< 0.5 µM	< 2.8 µM	CC(C)C[C@H]1CN(c2ccc(Cl)c(-c3n[nH]c4ncccc34)n2)CCN1 [Compound 47]
< 0.5 µM	< 2.8 µM	< 2.8 µM	Clc1ccc(N2CCNCC2)nc1-c1n[nH]c2ncccc12 [Compound 48]
< 0.5 µM	< 2.8 µM	> 1.25 µM	CC(C)C[C@H]1CN(c2ccc(-c3ccccc3)c(-c3n[nH]c4ncccc34)n2)CCN1 [Compound 49]
> 0.7 µM	> 2 µM	> 1.25 µM	c1ccc(-c2ccc(N3CCNCC3)nc2-c2n[nH]c3ncccc23)cc1 [Compound 50]
> 0.7 µM	> 2 µM	> 1.25 µM	C=Cc1ccc(N2CCN[C@@H](CC(C)C)C2)nc1-c1n[nH]c2ncccc12 [Compound 51]
< 0.5 µM	< 2.8 µM	> 1.25 µM	C=Cc1ccc(N2CCNCC2)nc1-c1n[nH]c2ncccc12 [Compound 52]
< 0.05 µM	< 0.5 µM	< 2.8 µM	CC(F)(F)CC1CN(c2cccc(-c3n[nH]c4ncccc34)n2)CCN1 (stereo not drawn) [Compound 54]
< 0.05 µM	< 2.8 µM	> 1.25 µM	C=C(F)c1cc(-c2n[nH]c3ncccc23)nc(N2CCN[C@@H](CC(C)C)C2)c1 [Compound 55]
< 0.5 µM	< 2.8 µM	> 1.25 µM	Cc1cc(-c2n[nH]c3ncccc23)nc(N2CCN[C@@H](CC(C)C)C2)c1 [Compound 56]
< 0.5 µM	> 2 µM	> 1.25 µM	CC(C)C[C@H]1CN(c2cc(C(F)(F)F)cc(-c3n[nH]c4ncccc34)n2)CCN1 [Compound 57]
< 0.5 µM	< 2.8 µM	> 1.25 µM	Cc1cc(N2CCN[C@@H](CC(C)C)C2)nc(-c2n[nH]c3ncccc23)c1Cl [Compound 58]
< 0.05 µM	< 0.5 µM	< 2.8 µM	CCCC1CN(c2cccc(-c3n[nH]c4ncccc34)n2)CCN1 (stereo not drawn) [Compound 59]
> 0.7 µM	< 0.5 µM	> 1.25 µM	OC1(c2cccc(-c3n[nH]c4ncccc34)n2)CCNCC1 [Compound 60, 4-(6-(1H-pyrazolo[3,4-b]pyridin-3-yl)pyridin-2-yl)piperidin-4-ol]
< 0.5 µM	< 2.8 µM	> 1.25 µM	NC1CCN(c2cccc(-c3n[nH]c4ncccc34)n2)CC1 [Compound 61]
< 2.8 µM	> 2 µM	> 1.25 µM	NC1CN(c2cccc(-c3n[nH]c4ncccc34)n2)C1 [Compound 63]
< 0.5 µM	< 2.8 µM	> 1.25 µM	NCC1CCN(c2cccc(-c3n[nH]c4ncccc34)n2)CC1 [Compound 64]
